Test results: patent publication US12642809B2, “Fucosylation and immune modulation in cancer” (H. LEE MOFFITT CANCER CENTER AND RESEARCH INSTITUTE, INC., priority 2019, dated 2026)
“Also recorded” adds a separate entry of the source.

Assays:
Assay type in all cases: in vivo, mouse
[1] = system: SW1 tumors; test: SW1 tumors in immunodeficient NSG mice fed with or without L-fuc
Method: (§1) Four-to-six-week-old female C3HeN and male C57BL6 mice were purchased from Charles Rivers Laboratories for the indicated experiments. Four-to-six-week-old male NSG mice from the Lau laboratory breeding colony were used for the indicated experiments. Mice were housed in the Comparative Medicine Facility at H. Lee Moffitt Cancer Center and Research Institute. Mouse tumor volumes were measured using length, width and depth divided by 2. Generally, 10 mice were assigned to each indicated treatment cohort, and 1×10^6 melanoma cells were subcutaneously injected into the right rear flanks of the recipient mice. At each experimental endpoint, mice were humanely euthanized using CO2 inhalation in accordance to the American Veterinary Medical Association guidelines. […] All experiments were approved by the Institutional Animal Care and Use Committee (IACUC) in accordance with the National Research Council guidelines.
SW1 murine mouse melanoma cells were subcutaneously injected into the right rear flanks of NSG mice. After 7 days, when the tumors reached ˜150 mm^3, the mice were either supplemented with or without 100 mM L-fucose (Biosynth (Oak Terrace, IL)) via drinking water, which was provided ad libitum. When the tumors reached 2 cm^3, the animals were sacrificed.

[2] = system: SW1 tumors; test: CD4+/CD8+ T cell immunodepletion, SW1 model
Method: (§2) Single-cell suspensions from tumor and spleen tissue were stained with Live/Dead Zombie NIR (Biolegend, (San Diego, CA)) at 1:1,000 in PBS for 20 min. Cell suspensions were spun down and stained with the following antibodies: APC anti-mouse CD3 (0.5 μg/mL, BD Biosciences (San Jose, CA)), Pacific Blue anti-mouse CD4 ([…], BD Biosciences (San Jose, CA)), BV785 anti-mouse CD8 (0.5 μg/mL, BD Biosciences (San Jose, CA)), PerCP anti-mouse CD25 ([…], BD Biosciences (San Jose, CA)), FITC anti-mouse F4/80 (0.5 μg/mL, BD Biosciences (San Jose, CA)), PeCy7 anti-mouse CD11c (0.5 μg/mL, BD Biosciences (San Jose, CA)), PE anti-mouse NK1.1 (0.5 μg/mL, BD Biosciences (San Jose, CA)), PE anti-mouse DX5 (0.5 μg/mL, BD Biosciences (San Jose, CA)), PerCP-Cy5.5 anti-mouse CD11b (0.5 μg/mL, BD Biosciences (San Jose, CA)). After staining, the cells were washed and fixed (2% formaldehyde), followed by another wash and flow cytometric analysis. The compensation controls were prepared using 0.5 μg/ml. of each antibody with beads UltraComp eBeads™, (ThermoFisher Scientific (Waltham, MA)). All samples were subject to flow cytometric analysis using a LSR Flow Cytometer (BD Biosciences (San Jose, CA)). Flow cytometric data was further analyzed using FlowJo™ analysis software (BD Biosciences (San Jose, CA)). TIL profiles were determined as a measure of TIL subpopulations per gram of tumor tissues or % of total splenocytes.
Three days prior to tumor engraftment, PBS (control) or ˜300 μg α-CD4 (20 mg/kg, for immunodepletion, GK1.5, Bioxcell (West Lebanon, NH)) or α-CD8 (20 mg/kg, for immunodepletion, 2.43, Bioxcell (West Lebanon, NH)) was administered by intraperitoneal injection into the indicated cohorts of mice. Injections of immunodepletion antibody or PBS were continued every 3-4 days until endpoint. Syngeneic recipient C3H/HeN female or C57BL/6 male mice were injected with SW1 or SMI cells, respectively. After approximately 7 days, when the tumors reached ˜150 mm^3, the mice were either supplemented with or without 100 mM L-fucose (Biosynth (Oak Terrace, IL)) via drinking water, which was provided ad libitum. When the tumors reached ˜2 cm^3, the animals were sacrificed, and the tumors were either processed for flow cytometric profiling or for histological analysis as indicated.

[3] = system: SW1 tumors; test: H2K1/EB1 knockdown and EB1 fucomutant reconstitution SW1 tumor model; conditions: for L-fuc-triggered tumor suppression: EB1 (IEβ) knockdown tumors (shEB1, shEB1+EV)
Method: as §2
SW1 mouse melanoma cells expressing either shNT (non-targeting shRNA), shH2K1, shEB1, shNT+EV, shEB1+EV, shEB1+EB1 WT, or shEB1+EB1 N46G were injected into syngeneic C3H/HeN female mice. After approximately 7 days, when the mice tumors reached ˜150 mm^3, the mice were either supplemented with or without 100 mM L-fucose (Biosynth (Oak Terrace, IL)) via drinking water, which was provided ad libitum. When the tumors reached ˜2 cm^3, the animals were sacrificed, and the tumors were either processed for flow cytometric profiling or for histological analysis as indicated

[4] = system: SM1 melanoma tumors; test: SM1 melanoma tumors in C57BL/6 mice fed control or L-fucose water
Method: Tumors of SW1 or SMI melanoma cells from C3H/HeJ or C57BL/6 mice, respectively) were digested using 1× tumor digest buffer (0.5 mg/ml. Collagenase I, 0.5 mg/ml. Collagenase IV, 0.25 mg/ml. Hyalyronidase V. 0.1 mg/ml. DNAse I in HBSS (Millipore Sigma (St. Louis, MO)). Tumors were homogenized using the Miltenyi MACs dissociator. Red blood cells were lysed using ACK lysis buffer (Life Technologies, (Grand Island, NY)). Tumor homogenate cells were counted using a standard hemocytometer. (7) Flow Cytometry (a) TIL Profiling:
as §2
FFPE mouse tumor sections were immunostained with FITC-conjugated AAL lectin (0.4 μg/mL, Vector Laboratories (Burlingame, CA)), rabbit anti-Mart-1 (0.2 μg/mL, Millipore Sigma (St. Louis, MO), and rabbit anti-S100 (0.2 μg/mL, Agilent Technologies (Santa Clara, CA)), followed by AlexaFluor 594 donkey anti-rabbit secondary antibody (0.05 μg/mL, ThermoFisher Scientific (Waltham, MA)). The slides were mounted with VECTASHIELD®+DAPI (Vector Laboratories (Burlingame, CA)). Microscopy images were acquired using a Keyence BZ-X710 microscope (Osaka, Japan), and images were measured for AAL-positive signal within MARTI-/S 100-positive regions (designated as melanoma regions of interest) using FIJI software (NIH). Statistical analysis was performed using GraphPad Prism™ (San Diego, CA).
as §1
SW1 or SMI mouse melanoma cells were injected into syngeneic C3H/HeN (or NSG) female or C57BI/6 male mice, respectively. […]

[5] = 100 mM L-fucose in drinking water

With `C[C@H](O)[C@@H](O)[C@@H](O)[C@H](O)C=O` [L-fucose] the “tumor growth with vs without L-fuc” value [1] was “no significant differences”, the “L-fuc-induced tumor suppression and increase in total TILs” value ([2]; CD4+ T cell-depleted mice) was “abrogated tumor suppression” and the “increases in intratumoral NK, DC and CD8+ T cells” value ([2]; CD4+ T cell-depleted mice) was “completely blunted”. For the same molecule, the “L-fuc-induced tumor suppression and increase in total TILs” value ([2]; CD4+ T cell-depleted mice, listed as L-fuc) was “completely abrogated”, the reduced tumor growth ([2]; CD8+ T cell-depleted mice) was roughly 50% and the reduced tumor growth ([2]; control (PBS-injected) mice) was roughly 60%. The “increase in intratumoral CD8+ T cells” value ([2]; control mice) was roughly 10 fold, the “increase in intratumoral DC” value ([2]; control mice) was roughly 10 fold and the “increase in intratumoral NK cells” value ([2]; control mice) was roughly 3 fold. The L-fuc-triggered tumor suppression [3] was “abrogates”, the L-fuc-triggered tumor suppression ([3]; listed as L-fuc) was “completely abrogated” and the reduced tumor growth ([3]; control knockdown (shNT / shNT+EV) tumors) was roughly 60%. For the same molecule, the tumor suppression ([3]; shEB1+N46G tumors) was “did not suppress”, the reduced tumor growth ([3]; shEB1+WT tumors) was greater than 60% and the “L-fuc-triggered induction of total TIL counts and subpopulations” value ([3]; shEB1 tumors) was “reduced; also recorded: abrogated”. For the same molecule, the “TIL induction by L-fuc” value ([3]; shEB1 tumors reconstituted with EB1 WT) was “restored”, the “TIL induction by L-fuc” value ([3]; shEB1 tumors reconstituted with EV or EB1 N46G) was “did not” and the decreased tumor volume [4, 5] was roughly 60%. For the same molecule, the “increase in tumor fucosylation” value [4, 5] was roughly 4 fold, the “absolute counts of each TIL subpopulation” value ([4]; flow cytometry) was “significantly increased” and the “increase in CD3+ T cell subpopulation” value ([4]; flow cytometry) was roughly 15 fold. For the same molecule, the “increase in CD4+ and CD8+ T cells” value ([4]; flow cytometry) was 10-100 fold, the “increase in total TILs” value ([4]; flow cytometry) was roughly 10 fold and the splenic lymphocyte profiles ([4]; flow cytometry) was “did not significantly alter”.
